The source made the active and inactive calls. The rule behind the calls is not given here. A value given as a limit tells only on which side of the number the result lay.

Data set [1] deals with Sodium-dependent serotonin transporter (Rattus norvegicus, UniProt P31652). In kind it is cell-based, HEK293.
A short description of data set [2]: Lipophilicity, log D of the compound. It is filed as physicochemical. The following applies: octanol/water.
The nature of data set [3]: Partition coefficient, log P of the compound. In kind it is physicochemical. Conditions: octanol/water.
Data set [4] is described as follows: Metabolic stability in human liver microsomes assessed as systemic clearance at 1 uM after 15 mins by LC-MS/MS analysis. It is filed as ADME, Microsome. Background: Liver microsomes are vesicles of endoplasmic reticulum, rich in cytochrome P450 enzymes.
Data set [5] can be described thus: Metabolic stability in rat liver microsomes assessed as systemic clearance at 1 uM after 15 mins by LC-MS/MS analysis. It is filed as ADME, Microsome.
A short description of data set [6]: Cmax in Sprague-Dawley rat at 30 mg/kg, po. In kind it is ADME, organism-based. Further details: dose 30 mg/kg, route oral. Conditions: in vivo.
A short description of data set [7]: Tmax in Sprague-Dawley rat at 30 mg/kg, po. It is filed as ADME, organism-based. Further details: dose 30 mg/kg, route oral. The following applies: in vivo.
A short description of data set [8]: AUC in Sprague-Dawley rat at 30 mg/kg, po. In kind it is ADME, organism-based. Further details: dose 30 mg/kg, route oral. Conditions: plasma.
Data set [9] in a line: Apparent elimination half life in Sprague-Dawley rat at 30 mg/kg, po. The following applies: in vivo, read-out: beta t1/2 (converted). Further details: dose 30 mg/kg, route oral. In kind it is ADME, organism-based.
Data set [10] can be described thus: Apparent oral clearance in Sprague-Dawley rat at 30 mg/kg, po. Further details: dose 30 mg/kg, route oral. In kind it is ADME, organism-based. Conditions: in vivo.
Data set [11] is described as follows: Drug level in Sprague-Dawley rat brain at 30 mg/kg, po after 1 hr. It is filed as ADME, organism-based. Set-up: dose 30 mg/kg, route oral. The following applies: read-out: Drug uptake.
Data set [12] is described as follows: Drug level in Sprague-Dawley rat brain at 30 mg/kg, po after 4 hrs. It is filed as ADME, organism-based. Set-up: dose 30 mg/kg, route oral. The following applies: read-out: Drug uptake.
Data set [13] can be described thus: Ratio of drug level in brain to plasma in Sprague-Dawley rat at 30 mg/kg, po after 1 hr. It is filed as ADME, organism-based. Further details: dose 30 mg/kg, route oral.
The nature of data set [14]: Ratio of drug level in brain to plasma in Sprague-Dawley rat at 30 mg/kg, po after 4 hrs. Set-up: dose 30 mg/kg, route oral. In kind it is ADME, organism-based.
Data set [15] has as its system Rattus norvegicus. The data set is described as follows: Antinociceptive activity in CD rat assessed as reduction in number of hind paw flinching at 60 mg/kg, po by formalin test. Set-up: scale not given: the % may be the effect or the level left. It is filed as functional.
Data set [16] is described as follows: physchem.
Description: Dissociation constant, pKa of the compound
Data set [17] can be described thus: in vitro. The following applies: human, Caco-2.
Description: Apparent permeability from apical to basolateral side of the human Caco-2 cells
In data set [18] the target is Sodium-dependent noradrenaline transporter (Homo sapiens, UniProt P23975). The data set can be described thus: biochemical.
Chain of Sodium-dependent noradrenaline transporter (P23975 whole entry): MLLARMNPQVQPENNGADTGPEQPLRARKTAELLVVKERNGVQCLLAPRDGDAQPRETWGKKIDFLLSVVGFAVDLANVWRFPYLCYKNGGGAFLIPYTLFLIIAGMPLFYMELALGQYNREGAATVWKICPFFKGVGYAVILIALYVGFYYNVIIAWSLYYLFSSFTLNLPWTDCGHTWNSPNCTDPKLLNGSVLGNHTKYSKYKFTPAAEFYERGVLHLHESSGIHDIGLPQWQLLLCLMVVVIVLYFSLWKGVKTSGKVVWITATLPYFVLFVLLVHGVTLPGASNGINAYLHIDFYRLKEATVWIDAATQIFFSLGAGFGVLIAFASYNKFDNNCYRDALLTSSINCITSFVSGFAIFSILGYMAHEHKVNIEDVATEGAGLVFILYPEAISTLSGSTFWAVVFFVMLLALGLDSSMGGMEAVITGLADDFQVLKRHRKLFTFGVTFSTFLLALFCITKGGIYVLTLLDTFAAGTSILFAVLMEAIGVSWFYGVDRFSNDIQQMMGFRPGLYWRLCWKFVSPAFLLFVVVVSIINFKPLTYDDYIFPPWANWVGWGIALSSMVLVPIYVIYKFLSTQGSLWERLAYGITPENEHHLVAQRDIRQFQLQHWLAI
Description: Displacement of Levo[ring-2,5,6-3H]norepinephrine from human cloned NET expressed in HEK293 cells by microplate scintillation counter
The target in data set [19] is Sodium-dependent serotonin transporter (Homo sapiens, UniProt P31645). The data set is described as follows: biochemical.
Chain of Sodium-dependent serotonin transporter (Homo sapiens, UniProt P31645) (P31645 whole entry): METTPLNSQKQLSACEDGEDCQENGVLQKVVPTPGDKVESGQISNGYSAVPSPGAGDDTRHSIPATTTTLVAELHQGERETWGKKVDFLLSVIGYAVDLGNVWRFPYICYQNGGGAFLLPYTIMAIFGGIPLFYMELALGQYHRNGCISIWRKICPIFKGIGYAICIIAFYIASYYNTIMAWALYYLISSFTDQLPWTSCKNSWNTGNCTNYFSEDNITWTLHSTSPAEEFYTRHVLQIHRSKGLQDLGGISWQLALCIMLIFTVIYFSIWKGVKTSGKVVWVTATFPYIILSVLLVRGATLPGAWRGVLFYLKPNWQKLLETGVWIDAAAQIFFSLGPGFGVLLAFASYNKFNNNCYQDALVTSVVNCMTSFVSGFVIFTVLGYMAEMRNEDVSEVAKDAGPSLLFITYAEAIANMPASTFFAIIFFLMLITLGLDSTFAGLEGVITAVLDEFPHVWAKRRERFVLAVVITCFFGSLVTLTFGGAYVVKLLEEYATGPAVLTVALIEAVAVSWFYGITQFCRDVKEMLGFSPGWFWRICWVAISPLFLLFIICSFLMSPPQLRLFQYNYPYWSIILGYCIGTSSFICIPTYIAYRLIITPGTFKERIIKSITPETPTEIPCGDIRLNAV
Description: Displacement of [alpha,beta-3H(N)]-5-hydroxytryptamine from human cloned SERT expressed in HEK293 cells by microplate scintillation counter
Data set [20] addresses Sodium-dependent dopamine transporter (Homo sapiens, UniProt Q01959). The data set can be described thus: biochemical.
Description: Displacement of 3,4-[ring-2,5,6-3H]dihydroxyphenylethylamine from human cloned DAT expressed in HEK293 cells by microplate scintillation counter
Data set [21] concerns the target Transporter (Rattus norvegicus, UniProt Q63380). The data set can be described thus: biochemical.
Description: Displacement of Levo[ring-2,5,6-3H]norepinephrine from rat synaptosomal NET expressed in HEK293 cells by microplate scintillation counter
In data set [22] the target is Sodium-dependent dopamine transporter (Rattus norvegicus, UniProt P23977). The data set is described as follows: biochemical.
Chain of Sodium-dependent dopamine transporter (Rattus norvegicus, UniProt P23977) (P23977 whole entry): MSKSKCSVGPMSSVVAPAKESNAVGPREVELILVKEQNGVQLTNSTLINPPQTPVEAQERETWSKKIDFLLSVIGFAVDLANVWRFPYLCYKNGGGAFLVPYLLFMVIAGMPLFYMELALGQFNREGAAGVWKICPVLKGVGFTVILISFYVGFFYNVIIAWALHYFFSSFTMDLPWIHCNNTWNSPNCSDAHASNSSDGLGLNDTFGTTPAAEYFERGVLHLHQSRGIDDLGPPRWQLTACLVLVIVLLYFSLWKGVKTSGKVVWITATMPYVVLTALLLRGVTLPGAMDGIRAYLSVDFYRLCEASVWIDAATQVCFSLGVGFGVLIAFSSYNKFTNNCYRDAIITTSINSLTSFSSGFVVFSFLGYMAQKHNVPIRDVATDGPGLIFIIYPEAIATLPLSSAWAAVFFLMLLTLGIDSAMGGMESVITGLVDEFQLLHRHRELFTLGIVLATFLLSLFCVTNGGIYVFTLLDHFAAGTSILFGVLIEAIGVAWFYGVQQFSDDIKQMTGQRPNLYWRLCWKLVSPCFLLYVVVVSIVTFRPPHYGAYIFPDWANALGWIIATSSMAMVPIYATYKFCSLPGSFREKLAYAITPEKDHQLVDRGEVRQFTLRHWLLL
Description: Displacement of 3,4-[ring-2,5,6-3H]dihydroxyphenylethylamine from rat synaptosomal DAT expressed in HEK293 cells by microplate scintillation counter
Data set [23] deals with Rattus norvegicus. The data set can be described thus: Antinociceptive activity in CD rat assessed as reduction in number of hind paw flinching at 30 mg/kg, po by formalin test. In kind it is functional, organism-based. Further details: dose 30 mg/kg.
The species named for data set [24] is Rattus norvegicus. The data set is described as follows: Reversal of pin-prick-induced neuropathic mechanical hyperalgesia in Harlan Sprague-Dawley rat sciatic nerve ligation model. It is filed as functional, organism-based.

Chain of Transporter (Q63380 whole entry): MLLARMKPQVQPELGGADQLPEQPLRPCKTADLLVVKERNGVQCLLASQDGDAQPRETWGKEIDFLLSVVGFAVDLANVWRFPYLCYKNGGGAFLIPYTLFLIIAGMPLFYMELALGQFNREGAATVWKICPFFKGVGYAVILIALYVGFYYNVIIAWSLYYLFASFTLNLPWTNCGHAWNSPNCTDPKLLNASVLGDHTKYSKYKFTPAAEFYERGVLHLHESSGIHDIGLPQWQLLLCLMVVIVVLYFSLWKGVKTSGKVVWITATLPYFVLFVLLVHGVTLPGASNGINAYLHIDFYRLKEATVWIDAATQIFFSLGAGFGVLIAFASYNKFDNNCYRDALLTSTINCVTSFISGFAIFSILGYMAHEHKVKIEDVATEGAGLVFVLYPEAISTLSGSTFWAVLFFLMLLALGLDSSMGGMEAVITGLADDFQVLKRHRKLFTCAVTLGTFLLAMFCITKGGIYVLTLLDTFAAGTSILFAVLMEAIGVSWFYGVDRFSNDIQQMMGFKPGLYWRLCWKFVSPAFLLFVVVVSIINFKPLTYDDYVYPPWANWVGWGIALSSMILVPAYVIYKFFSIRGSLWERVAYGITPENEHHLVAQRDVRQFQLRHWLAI
Chain of Sodium-dependent dopamine transporter (Homo sapiens, UniProt Q01959) (Q01959 whole entry): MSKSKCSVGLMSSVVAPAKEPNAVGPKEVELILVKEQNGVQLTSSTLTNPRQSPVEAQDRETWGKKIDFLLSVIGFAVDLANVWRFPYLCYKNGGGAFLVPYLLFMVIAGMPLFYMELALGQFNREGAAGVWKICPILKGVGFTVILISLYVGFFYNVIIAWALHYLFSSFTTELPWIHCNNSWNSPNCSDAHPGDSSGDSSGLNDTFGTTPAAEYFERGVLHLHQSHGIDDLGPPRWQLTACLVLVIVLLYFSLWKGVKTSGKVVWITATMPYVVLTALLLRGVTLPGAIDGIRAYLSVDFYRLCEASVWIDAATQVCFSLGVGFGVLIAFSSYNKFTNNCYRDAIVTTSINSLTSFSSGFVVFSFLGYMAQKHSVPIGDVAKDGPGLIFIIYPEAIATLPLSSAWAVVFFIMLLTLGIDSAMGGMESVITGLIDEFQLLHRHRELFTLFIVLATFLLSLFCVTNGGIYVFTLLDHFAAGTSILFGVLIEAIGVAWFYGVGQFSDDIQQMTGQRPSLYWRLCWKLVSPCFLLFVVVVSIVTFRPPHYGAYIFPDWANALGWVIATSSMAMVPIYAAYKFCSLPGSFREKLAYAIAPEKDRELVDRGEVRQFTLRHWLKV
Chain of Sodium-dependent serotonin transporter (Rattus norvegicus, UniProt P31652) (P31652 whole entry): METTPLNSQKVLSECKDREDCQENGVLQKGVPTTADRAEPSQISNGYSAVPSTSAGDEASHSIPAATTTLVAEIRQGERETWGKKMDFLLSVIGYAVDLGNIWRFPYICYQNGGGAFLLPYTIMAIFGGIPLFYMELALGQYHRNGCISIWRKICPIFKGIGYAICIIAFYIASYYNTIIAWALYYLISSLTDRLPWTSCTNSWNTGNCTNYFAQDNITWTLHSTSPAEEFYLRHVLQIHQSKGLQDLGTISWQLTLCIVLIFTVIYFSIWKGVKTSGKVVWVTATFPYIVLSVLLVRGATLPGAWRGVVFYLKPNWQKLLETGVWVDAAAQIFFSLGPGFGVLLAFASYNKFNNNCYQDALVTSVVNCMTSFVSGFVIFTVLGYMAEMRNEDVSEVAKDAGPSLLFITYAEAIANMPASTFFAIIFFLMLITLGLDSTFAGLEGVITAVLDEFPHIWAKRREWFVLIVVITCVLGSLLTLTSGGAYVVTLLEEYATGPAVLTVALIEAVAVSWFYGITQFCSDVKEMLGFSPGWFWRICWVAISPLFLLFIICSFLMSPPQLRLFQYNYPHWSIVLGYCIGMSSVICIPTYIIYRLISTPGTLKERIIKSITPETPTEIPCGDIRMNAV

A word on the IC50: it is the concentration that gives 50% inhibition. In general, logD refers to lipophilicity at a set pH, counting ionised and neutral species. For orientation: logP means a log measure of how a compound divides between an organic and an aqueous phase. Broadly, the Cmax is the maximum level reached in the sampled fluid or tissue. For orientation: Tmax means the time at which the peak concentration occurs. One may read the AUC as the area under the concentration-time curve, a measure of exposure. In general, CL/F refers to clearance divided by bioavailability, as obtained after extravascular dosing. The Kp is tissue or fluid exposure divided by exposure in the circulation. Broadly, the pKa is the negative logarithm of the acid dissociation constant. As a reminder, the Papp A→B is the apparent permeability from the apical to the basolateral side of a cell layer. Turning to `C#CCN(CC)C(=O)[C@@]1(c2cccs2)C[C@H]1CN`, the IC50 was 160 nM in data set [1]; 19 nM in data set [18]; 81 nM in data set [19]; greater than 10000 nM in data set [20]; 160 nM in data set [21]; greater than 10000 nM in [22]. The logD in data set [2] amounted to 0.1. Besides, in data set [3], the logP was found to be 1.6. Further, the CLhep predicted at 1 µM was 2.6 mL/min/kg in [4] and 44 mL/min/kg in data set [5]. This compound had a Cmax in data set [6] of 649 ng/mL. Also, the Tmax in [7] amounted to 1.7 h. The compound also showed an AUC in [8] of 3210 ng·h/mL. Besides, the half-life in data set [9] was 1.9 h. In addition, the CL/F in data set [10] turned out to be 156 mL/min/kg. In addition, the concentration at 1 h in data set [11] came to 230 ng/g. In data set [12], the concentration at 4 h was found to be 112 ng/g. For the same compound, in data set [13], the Kp at 1 h was 0.3. In [14], the Kp at 4 h stood at 0.3. The Activity in [15] worked out at 56%. This compound also gave a pKa in [16] of 9.4. In [17], this compound returned a Papp A→B of 20.6 ×10⁻⁶ cm/s.

Regarding `C=CCN(CC=C)C(=O)[C@@]1(c2cccs2)C[C@H]1CN`, the result in [23] was Active. In data set [24], the Activity result is “Dose-dependent effect”.

The compound `C#CCN(CC#C)C(=O)[C@@]1(c2cccs2)C[C@H]1CN` returned a logD in data set [2] of 0.2. Further, the logP in data set [3] stood at 1.5. The CLhep predicted at 1 µM is 2.6 mL/min/kg in [4] and 43 mL/min/kg in data set [5]. Besides, in data set [16], the pKa stood at 9.3. Moreover, the Papp A→B in [17] amounted to 25 ×10⁻⁶ cm/s. For the same compound, the IC50 in data set [18] was 6 nM; in data set [19], 26 nM; in [20] it was greater than 10000 nM.

`NC[C@@H]1C[C@@]1(C(=O)N1Cc2ccccc2C1)c1cccs1`: the IC50 in [1] was 25 nM; in data set [18], 21 nM; in [19], 13 nM; in [20], 5540 nM; in data set [21] it was 15 nM; in data set [22], 2000 nM. Further, the logD in [2] came out at 0.5. The logP in [3] came out at 2.2. The CLhep predicted at 1 µM in data set [4] is 8.8 mL/min/kg; in [5] it was 64 mL/min/kg. Also, the Cmax in data set [6] was found to be 58 ng/mL. Further, in data set [7], the Tmax worked out at 1.1 h. The same compound had an AUC in data set [8] of 272 ng·h/mL. In addition, the half-life in data set [9] was 2.3 h. The CL/F in data set [10] was determined as 1840 mL/min/kg. Besides, the concentration at 1 h in data set [11] turned out to be 28 ng/g. Moreover, the concentration at 4 h in data set [12] was 24 ng/g. Besides, in data set [13], the Kp at 1 h is 1. Also, the Kp at 4 h in data set [14] was determined as 1.8. Besides, the Activity in data set [15] is 56%. Further, the pKa in data set [16] is 9.5. In data set [17], this compound registered an apical-to-basolateral permeability (Papp A→B) of 8.4 ×10⁻⁶ cm/s.

With `C=CCN(CC)C(=O)[C@@]1(c2ccsc2)C[C@H]1CN`, the IC50 in [1] is 27 nM; in data set [21], 6.4 nM; in [22] it was greater than 10000 nM. Further, the Activity in data set [15] came to 56%.
